“And” between values parts separate entries of the source, which are not always exact repeats. Identical values can stand only once. Where a SMILES comes first, the peptide text is derived from it.
What follows are molecules tested on lipase (assay: Lipase/lipolysis assay (EnzChek Lipase Substrate, quenched BODIPY-fatty acid conjugate) on stored human milk). Settings: not given.
For Lipase (RFU) in this document: test concentration or dose not given here.

| Structure (SMILES) | Lipase (RFU) | Hit in lipase inhibition screen (in words) |
| --- | --- | --- |
| COc1cc(O)c2c(=O)cc(-c3ccc(O)c(O)c3)oc2c1 [Hydroxygenkwanin] | 874.9866 RFU |  |
| O=C(O)C(O)Cc1ccc(O)cc1 (centres unmarked) [Hydroxyphenyllactic acid] | 914.2115 RFU |  |
| NCCS(=O)O [Hypotaurine] | 1147.047 RFU and 798.4494 RFU |  |
| Cl.O=C(O)Cc1cnc[nH]1 [Imidazoleacetic acid (hydrochloride)] | 807.4109 RFU |  |
| O=C1/C(=C2\Nc3ccc(S(=O)(=O)[O-])cc3C2=O)Nc2ccc(S(=O)(=O)[O-])cc21.[Na+].[Na+] [Indigo carmine] | 862.5624 RFU |  |
| OCc1c[nH]c2ccccc12 [Indole-3-carbinol] | 1082.489 RFU |  |
| O=C(O)C(O)Cc1c[nH]c2ccccc12 (centres unmarked) [Indolelactic acid] | 641.0066 RFU |  |
| C[C@H](CCC(=O)O)[C@H]1CC[C@H]2[C@@H]3CC[C@H]4C[C@@H](O)CC[C@]4(C)[C@H]3CC[C@]12C [Isoallolithocholic acid] | 881.405 RFU |  |
| CC(C)C(=O)O[C@H](CC(=O)O)C[N+](C)(C)C.[Cl-] [Isobutyryl-L-carnitine (chloride)] | 1069.653 RFU |  |
| O=C(/C=C/c1ccc(O)c(O)c1)O[C@@H]1CC(O)(C(=O)O)C[C@@H](OC(=O)/C=C/c2ccc(O)c(O)c2)C1O (some centres unmarked) [Isochlorogenic acid A] | 827.6093 RFU |  |
| COc1ccc2c(=O)c(-c3ccc(O)cc3)coc2c1 [Isoformononetin] | 1355.098 RFU |  |
| COc1cc2ccc(=O)oc2c(OC)c1O [Isofraxidin] | 929.2612 RFU |  |
| COc1ccc(CC(=O)O)cc1O [Isohomovanillic acid] | 1060.172 RFU |  |
| OC[C@H]1O[C@H](OC[C@H]2OC(O)[C@H](O)[C@@H](O)[C@@H]2O)[C@H](O)[C@@H](O)[C@@H]1O (some centres unmarked) [Isomaltose] | 1074.051 RFU |  |
| COc1ccc([C@@H]2CC(=O)c3c(O)cc(O[C@@H]4O[C@H](CO)[C@@H](O)[C@H](O)[C@H]4O)cc3O2)cc1 [Isosakuranin] | 864.5248 RFU |  |
| O=c1cc(-c2ccc(O)cc2)oc2c([C@@H]3O[C@H](CO)[C@@H](O)[C@H](O)[C@H]3O)c(O)c([C@@H]3OC[C@H](O)[C@H](O)[C@H]3O)c(O)c12 [Isoschaftoside] | 949.6414 RFU |  |
| COc1cc(C2Oc3ccc([C@H]4Oc5cc(O)cc(O)c5C(=O)[C@@H]4O)cc3OC2CO)ccc1O (some centres unmarked) [Isosilybin] | 921.7702 RFU |  |
| CC(C)CC(=O)O[C@H](CC(=O)[O-])C[N+](C)(C)C [Isovalerylcarnitine] | 737.2804 RFU |  |
| O=c1cc(-c2ccc(O)cc2)oc2cc(O)c([C@@H]3O[C@H](CO)[C@@H](O)[C@H](O)[C@H]3O[C@@H]3OC[C@H](O)[C@H](O)[C@H]3O)c(O)c12 [Isovitexin 2″-O-arabinoside] | 1033.269 RFU |  |
| C=C(CC(=O)O)C(=O)O [Itaconic Acid] | 944.0433 RFU |  |
| COc1cc(-c2cc(=O)c3c(O)c(OC)c(O)cc3o2)ccc1O [Jaceosidin] | 614.7008 RFU |  |
| CC(C)=C[C@H]1C[C@](C)(O)[C@@H]2[C@H]3CC[C@@H]4[C@@]5(C)CC[C@H](O[C@@H]6OC[C@H](O)[C@H](O[C@@H]7O[C@H](CO)[C@@H](O)[C@H](O)[C@H]7O[C@@H]7OC[C@@H](O)[C@H](O)[C@H]7O)[C@H]6O[C@@H]6O[C@@H](C)[C@H](O)[C@@H](O)[C@H]6O)C(C)(C)[C@@H]5CC[C@@]4(C)[C@@]34CO[C@@]2(C4)O1 [Jujuboside B] | 877.6814 RFU |  |
| O=c1c(O[C@@H]2O[C@H](CO[C@@H]3O[C@H](CO)[C@@H](O)[C@H](O)[C@H]3O)[C@@H](O)[C@H](O)[C@H]2O)c(-c2ccc(O)cc2)oc2cc(O)cc(O)c12 [Kaempferol 3-O-gentiobioside] | 1150.858 RFU |  |

| Structure (SMILES) | Lipase (RFU) | Hit in lipase inhibition screen (in words) |
| --- | --- | --- |
| O=c1c(O[C@@H]2O[C@H](CO)[C@@H](O)[C@H](O)[C@H]2O[C@@H]2O[C@H](CO)[C@@H](O)[C@H](O)[C@H]2O)c(-c2ccc(O)cc2)oc2cc(O)cc(O)c12 [Kaempferol 3-O-sophoroside] | 867.3846 RFU |  |
| O=C(O)[C@H]1O[C@@H](Oc2c(-c3ccc(O)cc3)oc3cc(O)cc(O)c3c2=O)[C@H](O)[C@@H](O)[C@@H]1O [Kaempferol 3-O-β-D-glucuronide] | 1023.998 RFU |  |
| C[C@@H]1O[C@@H](O[C@H]2[C@H](Oc3c(-c4ccc(O)cc4)oc4cc(O)cc(O)c4c3=O)O[C@H](CO)[C@@H](O)[C@@H]2O)[C@H](O)[C@H](O)[C@H]1O [Kaempferol 3-neohesperidoside] | 1019.446 RFU |  |
| C[C@@H]1O[C@@H](Oc2cc(O)c3c(=O)c(O)c(-c4ccc(O)cc4)oc3c2)[C@H](O)[C@H](O)[C@H]1O [Kaempferol-7-O-rhamnoside] | 963.8327 RFU |  |
| C[C@@]12C=Cc3occc3[C@H]1CC[C@@]13C[C@@H](CC[C@H]12)[C@@](O)(CO)C3 [Kahweol] | 608.7131 RFU |  |
| CC1=CC(=O)CC(C)(C)C1=O [Ketoisophorone] | 818.3204 RFU and 1086.358 RFU |  |
| OC[C@H]1O[C@@H](Oc2cc3c(O)cc(O)cc3[o+]c2-c2ccc(O)c(O)c2)[C@H](O)[C@@H](O)[C@@H]1O.[Cl-] [Kuromanin (chloride)] | 1192.7 RFU |  |
| NC(N)=NCCC[C@H](NC(=O)[C@@H](N)Cc1ccc(O)cc1)C(=O)O [Kyotorphin] | 988.5967 RFU |  |
| C[C@H](N)C(=O)NCC(=O)O [L-Alanyl-Glycine] (H-Ala-Gly-OH) | 816.3246 RFU |  |
| OC[C@H](O)C(O)[C@@H](O)CO [L-Arabitol] | 912.8862 RFU |  |
| Cl.N=C(N)NCCC[C@H](N)C(=O)O [L-Arginine (hydrochloride)] | 1273.102 RFU |  |
| N=C(N)NCCC[C@H](N)C(=O)O [L-Arginine] | 753.4686 RFU and 980.9809 RFU and 913.1858 RFU |  |
| N[C@@H](CC(=O)O)C(=O)[O-].[Na+] [L-Aspartic aicd (sodium)] | 708.7772 RFU and 1026.622 RFU |  |
| O=C(O)[C@@H]1CCN1 [L-Azetidine-2-carboxylic acid] | 953.3787 RFU |  |
| N=C(N)NOCC[C@H](N)C(=O)O.O=S(=O)(O)O [L-Canavanine sulfate] | 903.0256 RFU |  |
| O=C(/C=C/c1ccc(O)c(O)c1)O[C@H](C(=O)O)[C@H](OC(=O)/C=C/c1ccc(O)c(O)c1)C(=O)O [L-Chicoric Acid] | 1257.708 RFU |  |
| NC(=O)NCCC[C@H](N)C(=O)O [L-Citrulline] | 1167.04 RFU and 809.9531 RFU |  |
| N[C@@H](CS(=O)O)C(=O)O [L-Cysteine Sulfinic Acid] | 845.2477 RFU |  |
| N[C@@H](CS(=O)O)C(=O)O [L-Cysteinesulfinic acid] | 867.5137 RFU |  |
| N[C@@H](CS)C(=O)NCC(=O)O [L-Cysteinyl-Glycine] | 708.9877 RFU |  |
| NCC[C@H](N)C(=O)O [L-DABA] | 650.1144 RFU |  |
| O=C1C[C@@H](C(=O)O)NC(=O)N1 [L-Dihydroorotic acid] | 1002.656 RFU |  |
| N[C@@H](CSCSC[C@H](N)C(=O)O)C(=O)O [L-Djenkolic Acid] | 317.7642 RFU | significantly inhibited lipase activity |

| Structure (SMILES) | Lipase (RFU) | Hit in lipase inhibition screen (in words) |
| --- | --- | --- |
| N[C@@H](CCC(=O)O)C(=O)O [L-Glutamic Acid] | 1101.527 RFU and 821.1812 RFU |  |
| O=C([O-])[C@@H](O)CO.[Na+] [L-Glyceric acid (sodium)] | 822.8712 RFU |  |
| O=C1O[C@H]([C@@H](O)CO)[C@H](O)[C@@H]1O [L-Gulono-1,4-lactone] | 1139.877 RFU |  |
| CCCCCC(=O)O[C@H](CC(=O)[O-])C[N+](C)(C)C [L-Hexanoylcarnitine] | 948.6206 RFU |  |
| NC(=O)NCCCC[C@H](N)C(=O)O [L-Homocitrulline] | 822.9997 RFU |  |
| N[C@H]1CCOC1=O [L-Homoserine Lactone] | 1108.032 RFU |  |
| Nc1ccccc1C(=O)C[C@H](N)C(=O)O [L-Kynurenine] | 761.0277 RFU |  |
| NCCCC[C@H](N)C(=O)O [L-Lysine] | 909.5913 RFU and 1084.77 RFU and 881.5409 RFU and 1310.906 RFU |  |
| O=C(O)C[C@H](O)C(=O)O [L-Malic Acid] | 1144.049 RFU |  |
| CS(=O)(=O)CC[C@H](N)C(=O)O [L-Methionine Sulfone] | 897.1863 RFU |  |
| CCCCCCCC(=O)O[C@H](CC(=O)[O-])C[N+](C)(C)C [L-Octanoylcarnitine] | 1071.191 RFU |  |
| O=C(CO)[C@@H](O)[C@H](O)[C@@H](O)CO [L-Sorbose] | 1197.031 RFU |  |
| N[C@@H](Cc1c[nH]c2ccccc12)C(=O)O [L-Tryptophan] | 1074.461 RFU and 1239.076 RFU |  |
| CC(O)C(=O)[O-].CC(O)C(=O)[O-].[Ca+2] (centres unmarked) [Lactate (calcium)] | 763.893 RFU |  |
| OC[C@H]1O[C@@H](O[C@H]2[C@H](O)[C@@H](O)[C@@H](O)O[C@@H]2CO)[C@H](O)[C@@H](O)[C@H]1O [Lactose] | 912.5223 RFU |  |
| C=C1C(=O)O[C@@H]2[C@H]3C(CO)=CC(=O)C3=C(C)C[C@H](OC(=O)Cc3ccc(O)cc3)[C@@H]12 [Lactupicrin] | 995.7975 RFU |  |
| CC(C)CCC[C@@H](C)[C@H]1CC[C@H]2C3=CC[C@H]4C[C@@H](O)CC[C@]4(C)[C@H]3CC[C@]12C [Lathosterol] | 1017.106 RFU |  |
| Oc1cc(O)c2c(c1)OC(c1ccc(O)c(O)c1)C(O)C2O (centres unmarked) [Leucocyanidin] | 957.6226 RFU |  |
| C=CC(C)(CCC=C(C)C)OC(C)=O (centres unmarked) [Linalyl acetate] | 753.0162 RFU and 717.2876 RFU |  |
| COc1ccc(-c2cc(=O)c3c(O)cc(O[C@@H]4O[C@H](CO[C@@H]5O[C@@H](C)[C@H](O)[C@@H](O)[C@H]5O)[C@@H](O)[C@H](O)[C@H]4O)cc3o2)cc1 [Linarin] | 989.9197 RFU |  |
| CCCCC/C=C/C/C=C/CCCCCCCC(=O)O [Linolelaidic acid] | 831.2921 RFU |  |
| O=C(O)CCCCC1CCSS1 (centres unmarked) [Lipoic acid] | 1146.052 RFU |  |

Same assay, conditions: (hydrochloride)

| Structure (SMILES) | Lipase (RFU) |
| --- | --- |
| Cl.N[C@@H](CS)C(=O)O [L-Cysteine (hydrochloride)] | 936.4597 RFU and 1023.471 RFU |
| Cl.NCCCC[C@H](N)C(=O)O [L-Lysine hydrochloride] | 1184.747 RFU and 890.5892 RFU |
